In BigSolDB 2.1:

CC(C)C(=O)OCC(=O)[C@@]12O[C@H](C3CCCCC3)O[C@@H]1C[C@H]1[C@@H]3CCC4=CC(=O)C=C[C@]4(C)[C@H]3[C@@H](O)C[C@@]12C
solubility (mole fraction) (in acetonitrile, 278.15 K): 0.00485 | solubility (mole fraction) (in acetonitrile, 280.65 K): 0.00528 | solubility (mole fraction) (in acetonitrile, 283.15 K): 0.00576 | solubility (mole fraction) (in acetonitrile, 285.65 K): 0.00626 | solubility (mole fraction) (in acetonitrile, 288.15 K): 0.00687 | solubility (mole fraction) (in acetonitrile, 290.65 K): 0.00739 | solubility (mole fraction) (in acetonitrile, 293.15 K): 0.008 | solubility (mole fraction) (in acetonitrile, 295.65 K): 0.00865 | solubility (mole fraction) (in acetonitrile, 298.15 K): 0.00937 | solubility (mole fraction) (in acetonitrile, 300.65 K): 0.0101 | solubility (mole fraction) (in acetonitrile, 303.15 K): 0.0109 | solubility (mole fraction) (in acetonitrile, 305.65 K): 0.0117 | solubility (mole fraction) (in acetonitrile, 308.15 K): 0.0126 | solubility (mole fraction) (in acetonitrile, 310.65 K): 0.0135 | solubility (mole fraction) (in acetonitrile, 313.15 K): 0.0143 | solubility (mole fraction) (in ethanol, 278.15 K): 0.00231 | solubility (mole fraction) (in ethanol, 280.65 K): 0.00276 | solubility (mole fraction) (in ethanol, 283.15 K): 0.00333 | solubility (mole fraction) (in ethanol, 285.65 K): 0.00398 | solubility (mole fraction) (in ethanol, 288.15 K): 0.00478 | solubility (mole fraction) (in ethanol, 290.65 K): 0.00568 | solubility (mole fraction) (in ethanol, 293.15 K): 0.00674 | solubility (mole fraction) (in ethanol, 295.65 K): 0.00796 | solubility (mole fraction) (in ethanol, 298.15 K): 0.00937 | solubility (mole fraction) (in ethanol, 300.65 K): 0.011 | solubility (mole fraction) (in ethanol, 303.15 K): 0.0129 | solubility (mole fraction) (in ethanol, 305.65 K): 0.0151 | solubility (mole fraction) (in ethanol, 308.15 K): 0.0176 | solubility (mole fraction) (in ethanol, 310.65 K): 0.0204 | solubility (mole fraction) (in ethanol, 313.15 K): 0.0237 | solubility (mole fraction) (in ethyl acetate, 278.15 K): 0.0515 | solubility (mole fraction) (in ethyl acetate, 280.65 K): 0.0559 | solubility (mole fraction) (in ethyl acetate, 283.15 K): 0.0604 | solubility (mole fraction) (in ethyl acetate, 285.65 K): 0.0653 | solubility (mole fraction) (in ethyl acetate, 288.15 K): 0.0704 | solubility (mole fraction) (in ethyl acetate, 290.65 K): 0.076 | solubility (mole fraction) (in ethyl acetate, 293.15 K): 0.0818 | solubility (mole fraction) (in ethyl acetate, 295.65 K): 0.088 | solubility (mole fraction) (in ethyl acetate, 298.15 K): 0.0945 | solubility (mole fraction) (in ethyl acetate, 300.65 K): 0.101 | solubility (mole fraction) (in ethyl acetate, 303.15 K): 0.109 | solubility (mole fraction) (in ethyl acetate, 305.65 K): 0.116 | solubility (mole fraction) (in ethyl acetate, 308.15 K): 0.124 | solubility (mole fraction) (in ethyl acetate, 310.65 K): 0.133 | solubility (mole fraction) (in ethyl acetate, 313.15 K): 0.141 | solubility (mole fraction) (in isopropanol, 278.15 K): 0.00814 | solubility (mole fraction) (in isopropanol, 280.65 K): 0.00948 | solubility (mole fraction) (in isopropanol, 283.15 K): 0.0111 | solubility (mole fraction) (in isopropanol, 285.65 K): 0.013 | solubility (mole fraction) (in isopropanol, 288.15 K): 0.0151 | solubility (mole fraction) (in isopropanol, 290.65 K): 0.0175 | solubility (mole fraction) (in isopropanol, 293.15 K): 0.0203 | solubility (mole fraction) (in isopropanol, 295.65 K): 0.0234 | solubility (mole fraction) (in isopropanol, 298.15 K): 0.0271 | solubility (mole fraction) (in isopropanol, 300.65 K): 0.0312 | solubility (mole fraction) (in isopropanol, 303.15 K): 0.0359 | solubility (mole fraction) (in isopropanol, 305.65 K): 0.0411 | solubility (mole fraction) (in isopropanol, 308.15 K): 0.047 | solubility (mole fraction) (in isopropanol, 310.65 K): 0.0536 | solubility (mole fraction) (in isopropanol, 313.15 K): 0.061 | solubility (mole fraction) (in n-butanol, 278.15 K): 0.0669 | solubility (mole fraction) (in n-butanol, 280.65 K): 0.0689 | solubility (mole fraction) (in n-butanol, 283.15 K): 0.0716 | solubility (mole fraction) (in n-butanol, 285.65 K): 0.0743 | solubility (mole fraction) (in n-butanol, 288.15 K): 0.0779 | solubility (mole fraction) (in n-butanol, 290.65 K): 0.0815 | solubility (mole fraction) (in n-butanol, 293.15 K): 0.0852 | solubility (mole fraction) (in n-butanol, 295.65 K): 0.0898 | solubility (mole fraction) (in n-butanol, 298.15 K): 0.0942 | solubility (mole fraction) (in n-butanol, 300.65 K): 0.0993 | solubility (mole fraction) (in n-butanol, 303.15 K): 0.105 | solubility (mole fraction) (in n-butanol, 305.65 K): 0.111 | solubility (mole fraction) (in n-butanol, 308.15 K): 0.118 | solubility (mole fraction) (in n-butanol, 310.65 K): 0.124 | solubility (mole fraction) (in n-butanol, 313.15 K): 0.131 | solubility (mole fraction) (in n-propanol, 278.15 K): 0.0141 | solubility (mole fraction) (in n-propanol, 280.65 K): 0.0164 | solubility (mole fraction) (in n-propanol, 283.15 K): 0.0191 | solubility (mole fraction) (in n-propanol, 285.65 K): 0.0222 | solubility (mole fraction) (in n-propanol, 288.15 K): 0.025 | solubility (mole fraction) (in n-propanol, 290.65 K): 0.029 | solubility (mole fraction) (in n-propanol, 293.15 K): 0.0334 | solubility (mole fraction) (in n-propanol, 295.65 K): 0.0385 | solubility (mole fraction) (in n-propanol, 298.15 K): 0.0437 | solubility (mole fraction) (in n-propanol, 300.65 K): 0.05 | solubility (mole fraction) (in n-propanol, 303.15 K): 0.0567 | solubility (mole fraction) (in n-propanol, 305.65 K): 0.0644 | solubility (mole fraction) (in n-propanol, 308.15 K): 0.0728 | solubility (mole fraction) (in n-propanol, 310.65 K): 0.0825 | solubility (mole fraction) (in n-propanol, 313.15 K): 0.0925 | solubility (mole fraction) (in toluene, 278.15 K): 0.0297 | solubility (mole fraction) (in toluene, 280.65 K): 0.0318 | solubility (mole fraction) (in toluene, 283.15 K): 0.0342 | solubility (mole fraction) (in toluene, 285.65 K): 0.0367 | solubility (mole fraction) (in toluene, 288.15 K): 0.0392 | solubility (mole fraction) (in toluene, 290.65 K): 0.0421 | solubility (mole fraction) (in toluene, 293.15 K): 0.0449 | solubility (mole fraction) (in toluene, 295.65 K): 0.0479 | solubility (mole fraction) (in toluene, 298.15 K): 0.0511 | solubility (mole fraction) (in toluene, 300.65 K): 0.0544 | solubility (mole fraction) (in toluene, 303.15 K): 0.0579 | solubility (mole fraction) (in toluene, 305.65 K): 0.0616 | solubility (mole fraction) (in toluene, 308.15 K): 0.0654 | solubility (mole fraction) (in toluene, 310.65 K): 0.0694 | solubility (mole fraction) (in toluene, 313.15 K): 0.0735
